Residues, ends and D or L forms follow the SMILES beside them. No end group written: not given here. *: point of attachment. Carboxymethyl = O=C(O)C*
Experiments:
CD4+ T cells from PBMC = experiment: IFN-γ ELISpot, PBMC-derived in vitro expanded CD4+ T cell lines; type: cell-based, human; conditions: for T1D Donor T cell response / non-T1D Donor T cell response: PBMC T cell lines, responding donors/donors tested; for Recognition by IFN-γ-secreting CD4 T cells (ELISpot): expanded PBMCs from a T1D donor, PTM peptides and native parents
HLA-DRB1*03:01 = HLA-DRB1*03:01 (Homo sapiens, UniProt P01903+P01911, A100K/A102G/A103R/A169T/F55Y/I96L/K41T/L162R/M171V/P40S/Q125H/Q178H/Q39Y/R42S/S66N/T106N/T262R/W38E/Y61H); experiment: Fluorescence polarization competition peptide binding assay, HLA-DRB1*03:01
[1] = tested on: islet-derived T cell lines; experiment: Cytokine bead array (IFN-γ, TNF-α, IL-10), combined islet-derived T cell lines from donors with T1D; conditions: for islet derived T cell lines response to DR peptide pools or to single peptides: class II (DR) peptide pools or single peptides, IFNg, TNFa, IL-10 secretion
[2] = PTM and unmodified native Pool Peptides (pool PTM 1), long peptides
[3] = SEC (Secretory) DR3 Peptides Set

CC(C)C[C@H](NC(=O)[C@H](C)NC(=O)[C@H](CCC(=O)O)NC(=O)[C@@H](NC(=O)[C@H](CC(C)C)NC(=O)[C@H](Cc1c[nH]cn1)NC(=O)[C@H](CO)NC(=O)CN)C(C)C)C(=O)N[C@@H](Cc1ccc(O)cc1)C(=O)N[C@@H](CC(C)C)C(=O)N[C@H](C(=O)N[C@@H](CSCC(=O)O)C(=O)NCC(=O)N[C@@H](CCC(=O)O)C(=O)N[C@@H](CCCNC(=N)N)C(=O)NCC(=O)N[C@@H](Cc1ccccc1)C(=O)O)C(C)C [peptide 146–1, GSHLVEALYLVXGERGF] (H-GSHLVEALYLVC(Carboxymethyl)GERGF-OH; N-terminus and C-terminus assumed)
T1D Donor T cell response (CD4+ T cells from PBMC; [2]): 1/4
non-T1D Donor T cell response (CD4+ T cells from PBMC; [2]): 0/4
Recognition by IFN-γ-secreting CD4 T cells (ELISpot) (CD4+ T cells from PBMC): recognized
IC50 (HLA-DRB1*03:01): 270 to 300 nM

GSHLVEALYLVCGERGF [peptide 146]
T1D Donor T cell response (CD4+ T cells from PBMC; [2]): 1/4
non-T1D Donor T cell response (CD4+ T cells from PBMC; [2]): 0/4
Recognition by IFN-γ-secreting CD4 T cells (ELISpot) (CD4+ T cells from PBMC): recognized
IC50 (HLA-DRB1*03:01): 270 to 300 nM

QSIEGGAHEGLQHLGP [peptide 191]
T1D Donor T cell response (CD4+ T cells from PBMC; [3]): 0/4
non-T1D Donor T cell response (CD4+ T cells from PBMC; [3]): 0/4
IL-10 secretion, islet-derived T cell lines ([1]; DRB1*03:01+ donor 6550, cytokine bead array (Figure 6H)): recognized
islet derived T cell lines response to DR peptide pools or to single peptides ([1]; donor 6550 lines): donor 6550 lines positive with IL-10 secretion
islet derived T cell lines response to DR peptide pools or to single peptides ([1]; donor 6579 lines): donor 6579 lines negative
